“Also recorded” adds a separate entry of the source.
Key:
Tie2 = experiment: Western blot of phospho-Tie2 (Y992) in MEC monolayers treated with AXT107 and angiopoietin; type: cell-based, human
Method: (§1) A confluent monolayer of human microvascular endothelial cells (HMEC) was serum starved with EBM-2 overnight. After a 90 min treatment with AXT107 at concentrations of 0, 10, 32, and 100 μM, the cells were treated for 15 min with 1 mM sodium orthovanadate. Next the cells were treated with Angiopoietin-2 (Ang-2) at 200 ng/mL for 15 min. Following cell lysis, the lysates were immunoblotted for pTie2 (Y992), pSTAT3 (Y705), and pAkt (S473).
To investigate the effects of the integrin inhibitor AXT107 on Tie2 signaling, confluent monolayers of microvascular endothelial cells (MECs) on fibronectin-coated dishes were treated with various concentrations of AXT107 followed by exposure to the Tie2 ligands Ang1 or Ang2.
For Ang1/2 signaling investigations, cell culture dishes (10 cm diameter) were coated with 5 μg/ml fibronectin (FN1; Sigma-Aldrich, St. Louis, Mo.) for two hours at 37° C. The FN1 solution was then removed by aspiration and 5×10^6 microvascular endothelial cells (MECs; Lonza, Walkersville, Md.) were plated in EGM-2MV media (Lonza) and cultured for forty-eight hours at 37° C. The cells were then serum starved for sixteen hours in serum-free EGM-2 base media (Lonza). AXT107 (0-100 μM, as indicated) was subsequently added to each culture and incubated for seventy-five minutes at 37° C. The cultures were then treated with 1 mM sodium vanadate (New England Biolabs, Ipswich, Mass.) for fifteen minutes to enhance the phospho-Tie2 signal followed by stimulation with 200 ng/ml angiopoietin (R&D Systems, Minneapolis, Minn.) for an additional fifteen minutes. The cells were then transferred to ice, washed twice with ice cold Dulbecco's phosphate-buffered saline (dPBS) containing Ca^2+ and Mg^2+, and collected by scraping in 500 μl of 1×Blue Loading Buffer (Cell Signaling, Danvers, Mass.). Lysate samples were then sonicated, boiled, and resolved by SDS-PAGE. Specific proteins were identified by Western blot, using the following primary antibodies: Cell Signaling—phospho-Tie2 (Y992) (Cat#: 4221), Tie2 (Cat#: 7403), phospho-Stat3 (Y705) (Cat#: 4113), Stat3 (Cat#: 4904), phospho-Akt (S473) (Cat#: 4058), Akt (Cat#: 9272), phospho-p44/42 MAPK (T202/Y204) (Cat#: 4370), p44/42 MAPK (Cat#: 4695); BD Transduction Laboratories—β1 integrin (Cat#: 610467); Millipore—α5 integrin (Cat#: AB1928) and detected with HRP-conjugated goat anti-rabbit and sheep anti-mouse secondary antibodies (GE healthcare).

STAT3 = experiment: Western blot of phospho-STAT3 (Y705) in MEC lysates treated with Ang2 and AXT107; type: cell-based, human
Method: as §1
For Ang1/2 signaling investigations, cell culture dishes (10 cm diameter) were coated with 5 μg/ml fibronectin (FN1; Sigma-Aldrich, St. Louis, Mo.) for two hours at 37° C. The FN1 solution was then removed by aspiration and 5×10^6 microvascular endothelial cells (MECs; Lonza, Walkersville, Md.) were plated in EGM-2MV media (Lonza) and cultured for forty-eight hours at 37° C. […] Specific proteins were identified by Western blot, using the following primary antibodies: Cell Signaling—phospho-Tie2 (Y992) (Cat#: 4221), Tie2 (Cat#: 7403), phospho-Stat3 (Y705) (Cat#: 4113), Stat3 (Cat#: 4904), phospho-Akt (S473) (Cat#: 4058), Akt (Cat#: 9272), phospho-p44/42 MAPK (T202/Y204) (Cat#: 4370), p44/42 MAPK (Cat#: 4695); BD Transduction Laboratories—β1 integrin (Cat#: 610467); Millipore—α5 integrin (Cat#: AB1928) and detected with HRP-conjugated goat anti-rabbit and sheep anti-mouse secondary antibodies (GE healthcare).

α5 integrin subunit = biological target: T1, α5 integrin subunit (Homo sapiens, UniProt P08648); experiment: Triton X-100 fractionation of MEC lysates, α5 integrin; type: cell-based
T1 construct: host or cells: human dermal microvascular endothelial cells (MEC)
T1 sequence (P08648 42-894 limits assumed): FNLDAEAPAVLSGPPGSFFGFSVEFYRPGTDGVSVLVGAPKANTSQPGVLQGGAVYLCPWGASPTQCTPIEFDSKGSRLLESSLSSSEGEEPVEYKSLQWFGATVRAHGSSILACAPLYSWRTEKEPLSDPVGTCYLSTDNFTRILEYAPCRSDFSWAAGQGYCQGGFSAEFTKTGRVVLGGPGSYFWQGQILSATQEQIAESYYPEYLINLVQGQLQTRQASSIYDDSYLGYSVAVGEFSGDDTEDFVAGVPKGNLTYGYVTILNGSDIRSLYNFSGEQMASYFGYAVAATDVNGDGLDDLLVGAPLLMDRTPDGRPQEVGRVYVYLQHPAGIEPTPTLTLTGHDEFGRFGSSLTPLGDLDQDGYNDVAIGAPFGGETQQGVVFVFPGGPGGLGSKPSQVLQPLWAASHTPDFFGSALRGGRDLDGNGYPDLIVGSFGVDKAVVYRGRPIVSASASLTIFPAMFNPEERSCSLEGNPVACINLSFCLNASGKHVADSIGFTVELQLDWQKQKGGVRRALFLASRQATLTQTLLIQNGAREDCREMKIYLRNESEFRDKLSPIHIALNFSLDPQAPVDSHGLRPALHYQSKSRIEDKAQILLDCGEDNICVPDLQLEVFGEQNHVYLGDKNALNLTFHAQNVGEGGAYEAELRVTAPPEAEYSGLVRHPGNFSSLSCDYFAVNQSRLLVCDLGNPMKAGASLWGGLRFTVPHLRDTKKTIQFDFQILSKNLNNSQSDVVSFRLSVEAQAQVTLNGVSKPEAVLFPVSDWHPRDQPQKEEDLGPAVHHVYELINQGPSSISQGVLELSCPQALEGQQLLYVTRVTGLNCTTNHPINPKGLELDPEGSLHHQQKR
T1 sequence (P08648 895-1049 limits assumed): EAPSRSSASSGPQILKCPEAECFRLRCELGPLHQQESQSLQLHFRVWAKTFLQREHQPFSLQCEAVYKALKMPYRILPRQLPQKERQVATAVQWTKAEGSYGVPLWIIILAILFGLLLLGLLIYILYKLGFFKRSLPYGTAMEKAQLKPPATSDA
Method: α5β1-integrin heterodimer and αvβ3-integrin heterodimer are primary targets of AXT107.
The isolation of Triton X-100 soluble and insoluble fractions was performed using modifications to previously-described procedures (see, e.g., Lampugnani et al., J Cell Biol. 1995; 129(1):203-217). FN1-coated six-well plates were seeded with 2.5×10^6 cells and cultured for forty-eight hours, as described above. The cultures were then serum starved for ninety minutes in EBM-2 media, treated with 100 μM AXT107 or DMSO vehicle, and fifteen minutes with 1 mM sodium vanadate. […] The plates were then transferred to ice and washed twice with cold dPBS containing Ca^2+ and Mg^2+ and twice with EBM-2 media. The media was then removed and the cells incubated for thirty minutes on ice, at 4° C. in 200 μl of Triton X-100 extraction buffer (10 mM Tris-HCl, pH 7.5; 150 mM NaCl; 2 mM CaCl2); 1% NP-40; 1% […]; and a protease inhibitor cocktail (Cell Signaling, Cat#: 5871)) with occasional agitation. The extraction buffer was gently collected and centrifuged at 12,000×g for five minutes. The supernatant was then mixed with 125 μl of 3×Blue Loading Dye, boiled, and saved as the Triton X-100 soluble fraction at −20° C. […] Samples were analyzed by western blot as described above. […]

[1] = biological target: T2, α5 and β1 integrin subunits (Homo sapiens, UniProt P05556+P08648); experiment: Duolink protein interaction analysis; type: cell-based; settings: MEC monolayers; 100 μM AXT107 vs vehicle
T2 construct: host or cells: human dermal microvascular endothelial cells (MEC)
T2 sequence (P08648 42-894 limits assumed): as the sequence (P08648 42-894 limits assumed) above
T2 sequence (P08648 895-1049 limits assumed): as the sequence (P08648 895-1049 limits assumed) above
T2 sequence (P05556 21-798): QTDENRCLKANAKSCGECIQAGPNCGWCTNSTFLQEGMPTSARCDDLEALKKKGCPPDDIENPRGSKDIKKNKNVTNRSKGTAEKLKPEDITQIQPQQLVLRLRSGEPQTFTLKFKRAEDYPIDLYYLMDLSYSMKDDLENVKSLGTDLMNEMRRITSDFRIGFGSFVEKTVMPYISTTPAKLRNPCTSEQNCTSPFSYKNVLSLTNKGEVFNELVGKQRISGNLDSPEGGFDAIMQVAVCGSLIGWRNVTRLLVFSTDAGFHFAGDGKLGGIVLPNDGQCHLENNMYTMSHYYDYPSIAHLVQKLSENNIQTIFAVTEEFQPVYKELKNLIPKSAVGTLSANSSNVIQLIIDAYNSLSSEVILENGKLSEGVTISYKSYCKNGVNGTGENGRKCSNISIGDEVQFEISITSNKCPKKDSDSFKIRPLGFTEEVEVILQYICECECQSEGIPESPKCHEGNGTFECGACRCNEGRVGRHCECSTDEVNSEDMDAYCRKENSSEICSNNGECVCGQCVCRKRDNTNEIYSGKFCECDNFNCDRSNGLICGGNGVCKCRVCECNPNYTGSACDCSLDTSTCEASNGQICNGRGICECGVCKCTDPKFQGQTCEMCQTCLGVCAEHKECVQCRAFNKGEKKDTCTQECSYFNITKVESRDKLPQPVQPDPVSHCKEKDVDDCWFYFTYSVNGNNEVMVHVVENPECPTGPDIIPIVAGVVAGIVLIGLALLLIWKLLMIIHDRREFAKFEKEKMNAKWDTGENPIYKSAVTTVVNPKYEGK
Method: Additionally, changes in the interaction between the α5 s and β1 subunits were further investigated using Duolink™ technology which can visualize individual interactions between α5 and β1 integrin subunits as distinct spots by fluorescence microscopy.
Glass bottom, 96-well plates were coated with FN1, seeded with MECs, as described above for the immunofluorescence experiments. After growing for forty-eight hours, cells were serum starved for three hours, treated with 100 μM AXT107 or DMSO vehicle for ninety minutes, washed twice with dPBS containing Ca^2+ and Mg^2+, and fixed in 10% neutral buffered formalin. Cells were blocked in 5% normal goat serum; 0.3% Triton X-100 in dPBS containing Ca^2+ and Mg^2+ for one hour and incubated overnight at 4° C. with rabbit anti-α5 integrin and mouse anti-β1 integrin antibodies in PBS containing Ca^2+ and Mg^2+ with 1% BSA and 0.1% Triton X-100. Interaction spots were developed using DUOLINK green detection reagent according to the manufacturer's instructions and detected using the BD pathway 855 system.

integrin αvβ3 = integrin αvβ3 (Homo sapiens, UniProt P05106+P06756); settings: Lee et al., Sci Rep. 2014; cited from earlier work
Sequence of integrin αvβ3 (P06756 31-1048): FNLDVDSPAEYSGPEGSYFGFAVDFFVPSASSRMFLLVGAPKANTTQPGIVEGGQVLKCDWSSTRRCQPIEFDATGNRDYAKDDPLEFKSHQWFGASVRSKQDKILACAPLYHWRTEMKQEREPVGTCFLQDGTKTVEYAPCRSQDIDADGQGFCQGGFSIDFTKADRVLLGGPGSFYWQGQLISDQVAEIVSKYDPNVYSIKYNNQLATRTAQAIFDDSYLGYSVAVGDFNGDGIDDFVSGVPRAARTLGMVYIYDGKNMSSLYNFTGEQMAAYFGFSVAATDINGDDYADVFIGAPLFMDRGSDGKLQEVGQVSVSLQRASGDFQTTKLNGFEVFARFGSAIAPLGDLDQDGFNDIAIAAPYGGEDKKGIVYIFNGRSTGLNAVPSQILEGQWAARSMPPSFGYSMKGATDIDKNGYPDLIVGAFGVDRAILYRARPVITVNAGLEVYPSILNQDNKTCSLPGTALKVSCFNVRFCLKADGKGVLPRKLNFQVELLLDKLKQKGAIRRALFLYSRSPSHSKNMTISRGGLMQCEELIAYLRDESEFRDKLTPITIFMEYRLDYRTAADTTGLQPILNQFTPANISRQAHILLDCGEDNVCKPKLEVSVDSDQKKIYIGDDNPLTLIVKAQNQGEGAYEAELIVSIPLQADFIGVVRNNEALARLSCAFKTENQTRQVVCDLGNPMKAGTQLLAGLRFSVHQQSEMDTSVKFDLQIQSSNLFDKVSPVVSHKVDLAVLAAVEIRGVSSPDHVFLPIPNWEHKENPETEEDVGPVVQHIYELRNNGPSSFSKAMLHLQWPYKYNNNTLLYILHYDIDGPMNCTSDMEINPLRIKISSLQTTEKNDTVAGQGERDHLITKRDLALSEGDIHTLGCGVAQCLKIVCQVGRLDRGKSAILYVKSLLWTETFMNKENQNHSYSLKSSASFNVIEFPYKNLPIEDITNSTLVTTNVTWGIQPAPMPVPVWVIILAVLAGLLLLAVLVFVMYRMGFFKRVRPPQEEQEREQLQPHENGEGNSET
Sequence of integrin αvβ3 (P05106 27-788): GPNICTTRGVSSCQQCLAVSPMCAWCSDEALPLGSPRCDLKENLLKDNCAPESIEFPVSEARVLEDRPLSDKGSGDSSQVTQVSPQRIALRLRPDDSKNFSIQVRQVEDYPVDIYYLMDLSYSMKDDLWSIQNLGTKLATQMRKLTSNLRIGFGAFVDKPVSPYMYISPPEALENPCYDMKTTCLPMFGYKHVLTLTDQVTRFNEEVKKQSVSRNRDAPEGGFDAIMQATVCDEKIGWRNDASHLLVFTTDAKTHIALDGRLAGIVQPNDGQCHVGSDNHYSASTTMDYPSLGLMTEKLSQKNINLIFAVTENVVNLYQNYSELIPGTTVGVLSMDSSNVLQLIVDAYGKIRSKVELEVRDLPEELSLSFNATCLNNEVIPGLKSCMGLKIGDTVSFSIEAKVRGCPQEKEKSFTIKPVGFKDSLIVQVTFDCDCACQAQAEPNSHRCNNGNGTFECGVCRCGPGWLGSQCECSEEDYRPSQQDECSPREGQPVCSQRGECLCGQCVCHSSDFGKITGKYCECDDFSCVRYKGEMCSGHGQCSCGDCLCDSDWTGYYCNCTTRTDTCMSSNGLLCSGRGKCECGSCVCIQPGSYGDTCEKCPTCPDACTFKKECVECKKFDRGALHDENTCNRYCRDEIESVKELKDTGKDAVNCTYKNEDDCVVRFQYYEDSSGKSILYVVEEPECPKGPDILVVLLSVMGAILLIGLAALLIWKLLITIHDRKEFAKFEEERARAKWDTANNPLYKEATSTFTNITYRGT

LRRFSTAPFAFIDINDVINF [AXT107]
Tie2 phosphorylation (Tie2; AXT107 0-100 μM, then 200 ng/ml Ang2 15 min): increased phosphorylation; also recorded: significant, dose-dependent increase | Ang1 activity (Tie2 phosphorylation) (Tie2; AXT107 followed by Ang1, data not shown): did not significantly influence | total protein levels of Tie2 (Tie2; AXT107 with angiopoietin): remained unchanged; also recorded: does not influence total levels of Tie2 | phosphorylation by peptide alone (Tie2; in absence of either ligand): not induced | STAT3 phosphorylation (STAT3): increased phosphorylation | α5 integrin subunit location in fractionated lysates (α5 integrin subunit; 100 μM AXT107): relocated to the insoluble fraction | α5 integrin after immunoprecipitation of Tie2 (α5 integrin subunit; Triton X-100 fractionated lysates, with 200 ng/ml Ang2 or no growth factor): observed in the peptide-treated, insoluble fraction | interactions between α5 and β1 integrin subunits [1]: significantly reduced | binding to integrin αvβ3 (integrin αvβ3): binds tightly

Reference: patent US20190225670A1, “COMPOUNDS AND METHODS FOR ACTIVATING TIE2 SIGNALING” (ASCLEPIX THERAPEUTICS, LLC, priority 2016, published 2019)
